Peptide text beside a SMILES is read from it. * marks the point of attachment. Cbz = O=C(OCc1ccccc1)*
Experiments:
Type in all cases: cell-based
[1] = system: ASB11; experiment: Western blot analysis of ASB11 protein expression under ER stress; conditions: multiple cell lines; 10 μg/ml tunicamycin or 200 nM thapsigargin, 16 h; FIG. 4a
Experimental: FIG. 4. ER stress stimulates BIK ubiquitination and degradation through ASB11 and p97. (a) Western blot analysis of BIK and ASB11 levels in 293T cells treated with 10 μg/ml tunicamycin or 200 nM of thapsigargin for 16 h. (b) Western blot analysis of BIK levels in 293T cells treated with 10 μg/ml tunicamycin for 12 h and then with 50 μg/ml cycloheximide for indicated time periods. The relative amounts of BIK are indicated on the bottom. (c, e) Analysis of endogenous (c) or exogenous (e) BIK ubiquitination in 293T cells (c) or 293T derivatives as in FIG. 2d (e) transfected with indicated constructs and treated with tunicamycin. (d) Western blot analysis of 293T derivatives as in FIG. 2d treated with 10 μg/ml tunicamycin for 16 h. (f) Western blot analysis of BIK levels in 293T derivatives co-treated with 10 μg/ml tunicamycin and MG132 for 16 h. (g) Western blot analysis of BIK expression in 293T cells co-treated with tunicamycin and 10 μM CB-5083 for 16 h. […]
(§1) Cell extraction was performed with RIPA lysis buffer containing 50 mM Tris (pH 8.0), 0.15 M NaCl, 1% NP40, 1% sodium deoxycholate, 0.1% SDS, 1 mM PMSF, 1 µg/ml aprotinin, and 1 µg/ml leupeptin. […] Immunoprecipitation was performed and analyzed as previously described. […] The beads were washed with RIPA lysis buffer and the bound proteins were analyzed by Western blot.

[2] = system: BIK; experiment: Western blot analysis of BIK levels in 293T cells
Experimental: FIG. 2. […] (d) Western blot analysis of BIK levels in indicated cells stably expressing control or ASB11 shRNAs.
Cell extraction was performed with RIPA lysis buffer containing 50 mM Tris (pH 8.0), 0.15 M NaCl, 1% NP40, 1% sodium deoxycholate, 0.1% SDS, 1 mM PMSF, 1 µg/ml aprotinin, and 1 µg/ml leupeptin. Western blot was performed with the standard protocol. For an efficient detection of BIK by Western blot, Tricine-SDS-PAGE was used. Western blot analyses of other proteins were performed with Glycine-SDS-PAGE. Immunoprecipitation was performed and analyzed as previously described. Briefly, cell lysates were incubated with primary antibody for overnight. The Pure Proteome Protein A/G Magnetic Beads (LSKMAGA/G10, EMD Millipore) were then added into cell lysates and incubated for 1.5 h. The beads were washed with RIPA lysis buffer and the bound proteins were analyzed by Western blot.

[3] = system: ASB11 mRNA; experiment: RT-qPCR analysis of ASB11 mRNA expression in HCT116 cells treated with genotoxic agents; conditions: p53-proficient HCT116 cells, 24 h; FIG. 5a
Experimental: (§2) FIG. 5. […] (a) RT-qPCR analysis of ASB11 mRNA expression in indicated HCT116 cells treated with indicated dosages of doxorubicin or 5-FU for 24 h. […] (b) Western blot analysis of BIK and ASB11 expression in indicated HCT116 cells treated as in (a). (c) HCT116 p53^+/+ cells stably expressing control or ASB11 shRNA were treated with 10 μM 5-FU for 24 h and then with cycloheximide for indicated time points. Cells were lysed for Western blot analysis of BIK expression and the relative amounts of BIK are indicated on the bottom. The expression levels of ASB11 and BIK in the stable lines are shown on the bottom panel. (d) Western blot analysis of IRE1α expression and RT-qPCR analysis of XBP1 mRNA splicing in indicated HCT116 cells treated with 3 μg/ml doxorubicin or 10 μM 5-FU for 24 h. (e) RT-qPCR analysis of ASB11 and XBPls mRNA expression in HCT116 cells transfected with XBP1s and/or treated with 3 μg/ml doxorubicin for 16 h. […] (f) Analysis of BIK ubiquitination in HCT116 cells transfected with indicated constructs and/or treated with 3 μg/ml doxorubicin for 16 h. Total mRNA was extracted from cells using TRIZOL reagent (Invitrogen), and equal amounts of RNA were reverse transcribed to cDNA using the iScript™ cDNA Synthesis Kit (Bio-Rad). Quantitative real-time PCR was performed using the Power SYBR Green PCR Master kit (Applied Biosystems). […]

[4] = system: ASB11 mRNA; experiment: RT-qPCR analysis of ASB11 mRNA in H1299 cells treated with doxorubicin; conditions: p53-transfected H1299 cells
Experimental: Total mRNA was extracted from cells using TRIZOL reagent (Invitrogen), and equal amounts of RNA were reverse transcribed to cDNA using the iScript™ cDNA Synthesis Kit (Bio-Rad). Quantitative real-time PCR was performed using the Power SYBR Green PCR Master kit (Applied Biosystems). Amplification was performed on an ABI 7500 Fast Real-Time PCR system and GAPDH was used as an internal control.

[5] = system: ASB11; experiment: Western blot analysis of ASB11 expression in HCT116 cells; conditions: p53-dependent manner, FIG. 5b
Experimental: (§3) FIG. 5. […] (a) RT-qPCR analysis of ASB11 mRNA expression in indicated HCT116 cells treated with indicated dosages of doxorubicin or 5-FU for 24 h. […] (b) Western blot analysis of BIK and ASB11 expression in indicated HCT116 cells treated as in (a). (c) HCT116 p53^+/+ cells stably expressing control or ASB11 shRNA were treated with 10 μM 5-FU for 24 h and then with cycloheximide for indicated time points. Cells were lysed for Western blot analysis of BIK expression and the relative amounts of BIK are indicated on the bottom. The expression levels of ASB11 and BIK in the stable lines are shown on the bottom panel. (d) Western blot analysis of IRE1α expression and RT-qPCR analysis of XBP1 mRNA splicing in indicated HCT116 cells treated with 3 μg/ml doxorubicin or 10 μM 5-FU for 24 h. (e) RT-qPCR analysis of ASB11 and XBPls mRNA expression in HCT116 cells transfected with XBP1s and/or treated with 3 μg/ml doxorubicin for 16 h. […]
as §1

[6] = system: BIK; experiment: Western blot analysis of BIK expression in HCT116 cells; conditions: p53-dependent manner, FIG. 5b
Experimental: as §3, §1

[7] = system: IRE1α; experiment: Western blot analysis of IRE1α expression in HCT116 cells; conditions: 3 μg/ml doxorubicin or 10 μM 5-FU, 24 h, p53-dependent manner, FIG. 5d
Experimental: as §3, §1

[8] = system: XBP1 mRNA splicing; experiment: RT-qPCR analysis of XBP1 mRNA splicing in HCT116 cells; conditions: 3 μg/ml doxorubicin or 10 μM 5-FU, 24 h, p53-dependent manner, FIG. 5d
Experimental: as §2

[9] = system: BIK; experiment: Cycloheximide-chase analysis of BIK protein stability in HCT116 p53+/+ cells; conditions: p53-proficient HCT116 cells, 10 μM 5-FU 24 h then cycloheximide; FIG. 5c
Experimental: FIG. 5. […] (a) RT-qPCR analysis of ASB11 mRNA expression in indicated HCT116 cells treated with indicated dosages of doxorubicin or 5-FU for 24 h. […] (b) Western blot analysis of BIK and ASB11 expression in indicated HCT116 cells treated as in (a). (c) HCT116 p53^+/+ cells stably expressing control or ASB11 shRNA were treated with 10 μM 5-FU for 24 h and then with cycloheximide for indicated time points. Cells were lysed for Western blot analysis of BIK expression and the relative amounts of BIK are indicated on the bottom. The expression levels of ASB11 and BIK in the stable lines are shown on the bottom panel. (d) Western blot analysis of IRE1α expression and RT-qPCR analysis of XBP1 mRNA splicing in indicated HCT116 cells treated with 3 μg/ml doxorubicin or 10 μM 5-FU for 24 h. (e) RT-qPCR analysis of ASB11 and XBPls mRNA expression in HCT116 cells transfected with XBP1s and/or treated with 3 μg/ml doxorubicin for 16 h. […] (f) Analysis of BIK ubiquitination in HCT116 cells transfected with indicated constructs and/or treated with 3 μg/ml doxorubicin for 16 h.

[10] = system: TNBC cells (Hs578T, MDA-MB157, MDA-MB468); experiment: MTT assay for viability of TNBC cells transfected with BIKDD and treated with IRE1α inhibitor; conditions: combined with BIKDD
Experimental: FIG. 7. […] (a, c) MTT assay for the viability of indicated TNBC cells transfected with […] CMV-BIKDD (a) or VISA-BIKDD (c) and treated with 10 or 100 μM STF-083010 for 48 h. CI values are indicated. (b) Western blot analysis of cleaved PARP in indicated TNBC cells transfected with CMV-BIKDD and treated with 100 μM STF-083010 for 36 h. […] Tumor volume were measured at indicated days and plotted. Data are mean±s.d., *P<0.05; ***P<0.001 by two-way ANOVA with Turkey's post test, n=5. Tumors were surgically removed at day 49 and their sizes are shown on the right. (e) Mice orthotopically implanted with Hs578T cells and treated with VISA-BIKDD lipid nanoparticle together with STF-083010 or DMSO starting at day 28 after tumor cell implantation (see Materials and Methods). Tumor volume were measured at indicated days and plotted. Data are mean±s.d., ***P<0.001 by two-way ANOVA with Turkey's post test, n=5. Tumors were surgically removed at day 66 and their sizes are shown on the right.
MDA-MB157 and MDA-MB 468 cells were seeded at a density of 5×10^3 cells and Hs578T cells were at 2×10^3 cells in 96-well plates. Cells were transfected with BIKDD. In the next day, cells were treated with IRE1α inhibitor or DMSO for 48 h and then with 0.4 mg/ml methylthiazolyldiphenyltetrazolium bromide (MTT) (Sigma) for 2 h. Cells were dissolved in DMSO, followed by absorbance measurement at 590 nm. The combination index (CI) was calculated using the equation: CI=CA/IC50A+CB/IC50B. CA and CB represent the concentrations of the two agents for combined treatment. IC50A and IC50B are the IC50 values for each single treatment, which were determined by treating cells with various dosages of each agent followed by MTT assay. (CI<1) indicates a synergistic effect, (CI>1) corresponds to an antagonistic effect, and (CI=1) represents an additive effect.

SMILES	ASB11 mRNA level [3]	ASB11 protein level [5]	BIK protein level [6]	IRE1a level [7]	XBP1 mRNA splicing [8]	other results
C/C=C(/C)C(=O)O[C@H]1C(C)=C2[C@H]([C@@H]1OC(=O)CCCCCCC)[C@@](C)(OC(C)=O)C[C@H](OC(=O)CCC)[C@@]1(O)[C@H]2OC(=O)[C@@]1(C)O [thapsigargin]						ASB11 protein expression [1]: elevated; BIK protein level ([2]; multiple cell lines, 10 μg/ml tunicamycin or 200 nM thapsigargin, 16 h, FIG. 4a): reduced
COc1cccc2c1C(=O)c1c(O)c3c(c(O)c1C2=O)C[C@@](O)(C(=O)CO)C[C@@H]3O[C@H]1C[C@H](N)[C@H](O)[C@H](C)O1 [doxorubicin]	reduced	downregulated	upregulated	reduced	reduced	ASB11 mRNA [4]: downregulated
O=c1[nH]cc(F)c(=O)[nH]1 [5-FU, 5-fluorouracil]	reduced	downregulated	upregulated	reduced	reduced	BIK protein stability [9]: increased
CC(C)C[C@@H](C=O)NC(=O)[C@H](CC(C)C)NC(=O)[C@H](CC(C)C)NC(=O)OCc1ccccc1 [MG132] (Cbz-Leu-Leu-Leu-aldehyde)						effect on the decrease of BIK protein level caused by ASB11 overexpression ([2]; 293T cells transfected with ASB11, FIG. 2b): reversed
Cc1cc2c(C(N)=O)cccc2n1-c1nc2c(c(NCc3ccccc3)n1)COCC2 [CB-5083]						effect on BIK downregulation induced by ER stress or ASB11 overexpression ([2]; 293T cells, 10 μM CB-5083, 16 h, co-treated with tunicamycin, FIG. 4g): abrogated
Cc1cc(=O)oc2c(C=O)c(O)ccc12 [4μ8C, 7-Hydroxy-4-methyl-2-oxo-2H-1-benzopyran-8-carboxaldehyde]						killing effect of BIKDD on TNBC cells on combined administration [10]: enhanced

— patent US20200215153A1, “CANCER TREATMENT AND/OR PREVENTION THROUGH REGULATION OF UBIQUITINATION” (Academia Sinica, priority 2018, published 2020)
